Source: patent US12186297B2, “Compositions and methods for increasing lean-to-fat mass ratio” (AXCESS GLOBAL SCIENCES, LLC, priority 2020, dated 2025)

Experiment: Expected change in fat mass, muscle mass and lean-to-fat mass ratio in subjects following a training regimen (FIGS. 3, 4A-4C)
Format: in vivo
Conditions: FIG. 4A, set period of time (e.g., 1-3 months)
Text: FIG. 4A illustrates expected change in fat mass over a set period of time (e.g., 1-3 months) for subjects following a training regimen and given different treatments of HMB only (HMB), BHB only (BHB), and a combination of the same amounts of HMB and BHB (HMB+BHB).
FIG. 4B illustrates expected change in muscle mass over a set period of time (e.g., 1-3 months) for subjects following a training regimen and given different treatments of HMB only (HMB), BHB only (BHB), and a combination of the same amounts of HMB and BHB (HMB+BHB).

## CC(C)(O)CC(=O)O [HMB, beta-hydroxy-beta-methylbutyrate]
  expected change in fat mass: not expected to provide fat loss to any significant degree by itself
